The EC50 is the midpoint of the concentration-response curve. The low end stands for greater potency, the high end for weaker potency. In general, Emax refers to the maximal effect, on the per cent scale that the assay sets. Broadly, the Ki is a measure of affinity in units of concentration, obtained from inhibition or displacement.

Bounds are passed on as bounds.

Experiment [1] deals with T1, μ-opioid receptor (Homo sapiens (Human), UniProt P35372). Description: μ-opioid receptor [35S]GTPγS functional assay, HEK-293 or CHO cells. It is filed as biochemical. The following applies: for Emax: relative to DAMGO, HEK-293 or CHO cells. On the procedure:
μ-Opioid Receptor Functional Assay Procedures: [^35S]GTPγS functional assays were conducted using freshly thawed μ-receptor membranes prepared in-house from a cell line expressing recombinant μ opioid receptor in a HEK-293, CHO or U-2 OS cell background, or purchased from a commercial source (Perkin Elmer, Shelton, Conn.; or DiscovRx, Fremont, Calif.). Assay reactions were prepared by sequentially adding the following reagents to binding buffer (100 mM NaCl, 10 mM MgCl2, 20 mM HEPES, pH 7.4) on ice (final concentrations indicated): membrane protein (0.026 mg/mL), saponin ([…]), GDP ([…]) and [^35S]GTPγS (0.20 nM; Perkin Elmer, Shelton, Conn.). The prepared membrane solution (190 μl/well) was transferred to 96-shallow well polypropylene plates containing 10 μl of 20× concentrated stock solutions of the agonist [D-Ala^2, N-methyl-Phe^4 Gly-ol^5]-enkephalin (DAMGO) prepared in dimethyl sulfoxide (DMSO). Plates were incubated for 30 min at about 25° C. with shaking. Reactions were terminated by rapid filtration onto 96-well Unifilter GF/B filter plates (Perkin Elmer, Shelton, Conn.) using a 96-well tissue harvester (Perkin Elmer, Shelton, Conn.) followed by three filtration washes with 200 μl of ice-cold wash buffer (10 mM NaH2PO4, 10 mM Na2HPO4, pH 7.4). Filter plates were subsequently dried at 50° C. for 2-3 hours. BetaScint scintillation cocktail (Perkin Elmer, Shelton, Conn.) was added (50 μl/well) and plates were counted using a Packard Top-Count for 1 min/well. Data were analyzed using the sigmoidal dose-response curve fitting functions in GraphPad PRISM v. 3.0, or an in-house function for non-linear, sigmoidal dose-response curve-fitting.
μ-Opioid Receptor Functional Data: μ GTP EC50 is the concentration of a compound providing 50% of the maximal response for the compound at a μ-opioid receptor.
μ GTP Emax (%) is the maximal effect elicited by a compound relative to the effect elicited by DAMGO, a standard μ agonist. Generally, the μ GTP Emax (%) value measures the efficacy of a compound to treat or prevent pain or other Conditions.
(§1) In TABLE 2, activity response of certain Compounds of the Invention to the μ-, δ- and κ-opioid receptors was determined as described above for functional assays using HEK-293 or CHO cells.
(In general: GTPγS is a poorly hydrolysed GTP analogue; its binding reports G protein activation.)

The target of experiment [2] is T2, κ opioid receptor (Homo sapiens (Human), UniProt P41145). As to the kind of experiment: κ-opioid receptor radioligand ([3H]-U69,593) dose-displacement binding assay. The following applies: binding affinity, read-out: Opioid Receptor Ki (nM) κ. On the procedure: κ-Opioid Receptor Binding Assay Procedures: Membranes from recombinantHEK-293 cells, CHO or U-2 OS cells expressing the recombinant human κ opioid receptor (κ) were prepared by lysing cells in ice cold hypotonic buffer (2.5 mM MgCl2, 50 mM HEPES, pH 7.4) (10 mL/10 cm dish) followed by homogenization with a tissue grinder/Teflon pestle. Membranes were collected by centrifugation at 30,000×g for 15 min at 4° C. and pellets were resuspended in hypotonic buffer to a final concentration of 1-3 mg/mL. Protein concentrations were determined using the BioRad protein assay reagent with bovine serum albumen as standard. Aliquots of κ receptor membranes were stored at −80° C.
Radioligand dose displacement assays used 0.4 nM [^3H]-U69,593 (GE Healthcare, Piscataway, N.J.; 40 Ci/mmole) with 15 μg membrane protein (recombinant κ opioid receptor expressed in HEK 293 cells; in-house prep) in a final volume of 200 μl binding buffer (5% DMSO, 50 mM Trizma base, pH 7.4). Non-specific binding was determined in the presence of 10 μM unlabeled naloxone or U69,593. All reactions were performed in 96-well polypropylene plates for 1 hour at a temperature of about 25° C. Binding reactions were terminated by rapid filtration onto 96-well Unifilter GF/C filter plates (Perkin Elmer, Shelton, Conn.) presoaked in 0.5% polyethylenimine (Sigma). Harvesting was performed using a 96-well tissue harvester (Perkin Elmer, Shelton, Conn.) followed by five filtration washes with 200 μl ice-cold binding buffer. Filter plates were subsequently dried at 50° C. for 1-2 hours. Fifty μl/well scintillation cocktail (Perkin Elmer, Shelton, Conn.) was added and plates were counted in a Packard Top-Count for 1 min/well.
(§2) In TABLE 1, binding affinity of certain Compounds of the Invention to the μ-, δ- and κ-opioid receptors was determined as described above.

Experiment [3] addresses T1, μ-opioid receptor. Description: μ-opioid receptor radioligand ([3H]-diprenorphine) dose-displacement binding assay. The conditions noted are these: binding affinity, read-out: Opioid Receptor Ki (nM) μ. As for the experimental part:
μ-Opioid Receptor Binding Assay Procedures: Radioligand dose-displacement binding assays for μ-opioid receptors used 0.3 nM [^3H]-diprenorphine (Perkin Elmer, Shelton, Conn.), with […] membrane protein/well in a final volume of 500 μl binding buffer (10 mM MgCl2, 1 mM EDTA, 5% DMSO, 50 mM HEPES, pH 7.4). Reactions were carried out in the absence or presence of increasing concentrations of unlabeled naloxone. All reactions were conducted in 96-deep well polypropylene plates for 2 hours at room temperature. Binding reactions were terminated by rapid filtration onto 96-well Unifilter GF/C filter plates (Perkin Elmer, Shelton, Conn.), presoaked in 0.5% polyethylenimine using a 96-well tissue harvester (Perkin Elmer, Shelton, Conn.) followed by performing three filtration washes with 500 μl of ice-cold binding buffer. Filter plates were subsequently dried at 50° C. for 2-3 hours. BetaScint scintillation cocktail (Perkin Elmer, Shelton, Conn.) was added (50 μl/well), and plates were counted using a Packard Top-Count for 1 min/well. The data were analyzed using the one-site competition curve fitting functions in GraphPad PRISM™ v. 3.0 or higher (San Diego, Calif.), or an in-house function for one-site competition curve-fitting.
as §2

The target in experiment [4] is T2, κ opioid receptor. Description: κ-opioid receptor [35S]GTPγS functional assay, HEK-293 or CHO cells. It is filed as biochemical. The following applies: for Emax: relative to U69,593, HEK-293 or CHO cells. On the procedure: κ-Opioid Receptor Functional Assay Procedures: Functional [^35S]GTPγS binding assays were conducted as follows. κ opioid receptor membrane solution was prepared by sequentially adding final concentrations of 0.026 μg/μl κ membrane protein (in-house), 10 μg/mL saponin, 3 μM GDP and 0.20 nM [^35S]GTPγS to binding buffer (100 mM NaCl, 10 mM MgCl2, 20 mM HEPES, pH 7.4) on ice. The prepared membrane solution (190 μl/well) was transferred to 96-shallow well polypropylene plates containing 10 μl of 20× concentrated stock solutions of agonist prepared in DMSO. Plates were incubated for 30 min at a temperature of about 25° C. with shaking. Reactions were terminated by rapid filtration onto 96-well Unifilter GF/B filter plates (Perkin Elmer, Shelton, Conn.) using a 96-well tissue harvester (Packard) and followed by three filtration washes with 200 μl ice-cold binding buffer (10 mM NaH2PO4, 10 mM Na2HPO4, pH 7.4). Filter plates were subsequently dried at 50° C. for 2-3 hours. Fifty μl/well scintillation cocktail (Perkin Elmer, Shelton, Conn.) was added and plates were counted in a Packard Top-Count for 1 min/well.
κ-Opioid Receptor Functional Data: κ GTP EC50 is the concentration of a compound providing 50% of the maximal response for the compound at a κ receptor.
κ GTP Emax (%) is the maximal effect elicited by a compound relative to the effect elicited by U69,593.
as §1

In experiment [5] the target is T2, κ opioid receptor. Description: κ-opioid receptor [35S]GTPγS functional assay, U-2 OS cells. It is filed as biochemical. The conditions noted are these: for Emax: relative to U69,593, U-2 OS cells.
Experiment [6] has as its target T1, μ-opioid receptor. Description: μ-opioid receptor [35S]GTPγS functional assay, U-2 OS cells. The following applies: for Emax: relative to DAMGO, U-2 OS cells. The experiment is classed as biochemical.

On to `O=C1NC(=O)[C@@]2(CC[C@H]3[C@H]4Cc5ccc(O)cc5[C@@]3(CCN4CC3CC3)C2)N1` [Compound 7, (4bS,4′S,8aR,9R)-11-(cyclopropylmethyl)-3-hydroxy-5,7,8,8a,9,10-hexahydrospiro[9,4b-(epiminoethano)phenanthrene-6,4′-imidazolidine]-2′,5′-dione], for which the EC50 at μ-opioid receptor [1] stood at 3.76 ± 0.41 nM; at κ opioid receptor [4] it was 3.68 ± 0.99 nM. The maximal effect (Emax) is 37 ± 4.04% on μ-opioid receptor [1] and 86.3 ± 2.19% on κ opioid receptor [4]. Besides, the Ki at κ opioid receptor [2] was found to be 0.23 ± 0.05 nM; at μ-opioid receptor [3], 8.39 ± 2.72 nM.

With `CN1C(=O)NC(=O)[C@@]12CC[C@@]1(O)[C@H]3Cc4ccc(O)cc4[C@@]1(CCN3CC1CC1)C2` [Compound 63, (4S,4b′R,8a′S,9′R)-11′-(cyclopropylmethyl)-3′,8a′-dihydroxy-3-methyl-8′,8a′,9′,10′-tetrahydro-5′H,7′H-spiro[imidazolidine-4,6′-[9,4b](epiminoethano)phenantrene]-2,5-dione], the EC50 on μ-opioid receptor [1] was more than 20000 nM; at κ opioid receptor [5], 0.69 ± 0.025 nM; at μ-opioid receptor [6], 0.97 ± 0.053 nM; at κ opioid receptor [4] it was 3.53 ± 0.43 nM. The Emax stood at 1% on μ-opioid receptor [1], 108% on κ opioid receptor [5], 14.3 ± 0.67% at μ-opioid receptor [6] and 74.7 ± 1.45% at κ opioid receptor [4]. Besides, the Ki on κ opioid receptor [2] was 0.3 ± 0.041 nM; on μ-opioid receptor [3], 0.86 ± 0.11 nM.

As for `COc1ccc2c(c1)[C@]13CCN(CC4CC4)[C@H](C2)[C@]1(O)CC[C@@]1(C3)NC(=O)NC1=O` [Compound 2, (4bR,4′S,8aS,9R)-11-(cyclopropylmethyl)-8a-hydroxy-3-methoxy-5,7,8,8a,9,10-hexahydrospiro[9,4b-(epiminoethano)phenanthrene-6,4′-imidazolidine]-2′,5′-dione], the results for the EC50 at μ-opioid receptor [1] and at κ opioid receptor [4] were 1950 ± 37.7 nM and 2500 ± 556 nM, respectively. Also, the Emax on μ-opioid receptor [1] came to 31.3 ± 2.4%; at κ opioid receptor [4], 63 ± 1.53%. Further, the Ki on κ opioid receptor [2] was found to be 130 ± 22.7 nM; at μ-opioid receptor [3], 9050 ± 895 nM.

For the molecule `CCN1C(=O)NC(=O)[C@@]12CC[C@@]1(O)[C@H]3Cc4ccc(O)cc4[C@@]1(CCN3CC1CC1)C2` [Compound 49, (4S,4b′R,8a′S,9′R)-11′-(cyclopropylmethyl)-3-ethyl-3′,8a′-dihydroxy-8′,8a′,9′,10′-tetrahydro-5′H,7′H-spiro[imidazolidine-4,6′-[9,4b](epiminoethano)phenantrene]-2,5-dione], the EC50 at μ-opioid receptor [1] is more than 20000 nM; on κ opioid receptor [5], 1.82 ± 0.098 nM; at μ-opioid receptor [6], more than 20000 nM; on κ opioid receptor [4], 6.63 ± 2.21 nM. In addition, the Emax at μ-opioid receptor [1] is 1%; on κ opioid receptor [5], 111 ± 3.51%; at μ-opioid receptor [6], 2.5%; at κ opioid receptor [4], 59.3 ± 4.06%. For the same molecule, the Ki was 0.47 ± 0.026 nM on κ opioid receptor [2] and 2.28 ± 0.62 nM on μ-opioid receptor [3].

(Values after patent publication US8987287B2, “Spirocyclic morphinans and their use” (Purdue Pharma L.P., priority 2012, dated 2015).)
